Values quoted from earlier work in US9492406B2, “Pharmaceutical composition” (IPCA Laboratories Limited, priority 2012, dated 2016).
Where two headings read alike, the source gives them in different places. Blank lines part the entries; values can stand above or below the compound they belong to.

Columns and labels:
[1] = not given; remark: listed apart in the source
[2] = theophylline products of US2008248117

bioavailability (microfluidized microparticles supplied as suspension, with fat diet): 46-48%
bioavailability (oral non-sized suspension): about 23%
bioavailability (oral non-sized suspension, under fat fed condition): 46-48%
bioavailability (tablet formulations): ~12%
SMILES: O=C1C(O)=C([C@H]2CC[C@H](c3ccc(Cl)cc3)CC2)C(=O)c2ccccc21 [Atovaquone, trans-2-[4-(4-chlorophenyl)cyclohexyl]-3-hydroxy-1,4-naphthoquinone]

Release after 15 min in % ([1]; carbamazepine products of US2008248117, 15 min): 22%
Release after 30 min in % ([1]; carbamazepine products of US2008248117, 30 min): 53%
SMILES: NC(=O)N1c2ccccc2C=Cc2ccccc21 [Carbamazepine crystals, Carbamazepine]

Release after 15 min in % ([1]; theophylline products of US2008248117, 15 min): 34%
Release after 30 min in % ([1]; theophylline products of US2008248117, 30 min): 78%
Resistance to crushing [2]: 140
SMILES: Cn1c(=O)c2[nH]cnc2n(C)c1=O [Theophylline crystals, Theophylline]
